The results in this text go back to ChEMBL document CHEMBL1201862, “PubChem BioAssay data set” (2004).

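A five-concentration, 48-hour dose response in 96-well plates underlies each endpoint, interpolated linearly between surrounding concentrations. GI50 = concentration required for 50% inhibition of growth.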 The source made the active and inactive calls. No stated cut-off is given here; in the data, active = GI50 up to about 1.1 µM and inactive = higher. Where only a bound is given, the exact number is not on record here.

Among the test systems are SNB-75; K562; RPMI-8226; HOP-92; SNB-19; OVCAR-5; KM12; NCI-H460; A498; SK-OV-3; SF-295; UACC-257; COLO 205; MOLT-4; OVCAR-8; SF-539; SR.
Holding throughout (assay): DTP human tumour cell line panel, 48 h

`Cc1ccc(S(=O)(=O)N/N=C\c2c3ccccc3[n+]([O-])c3ccccc23)cc1`: the GI50 was 3.44 µM (inactive) in the assay with SNB-75; 0.36 µM (active) in the assay on K562; 0.415 µM (active) in the assay with RPMI-8226; 3.68 µM (inactive) in the assay with HOP-92; 11.9 µM (inactive) with SNB-19; 14.7 µM (inactive) with OVCAR-5. The GI50 was 9.55 µM (inactive) in the assay on KM12; 2.44 µM (inactive) in the assay on NCI-H460; 3.8 µM (inactive) with A498; 14.7 µM (inactive) in the assay on SK-OV-3; 6.76 µM (inactive) in the assay on SF-295; 9.95 µM (inactive) with UACC-257. Also, the GI50 was 2.72 µM (inactive) with COLO 205, 0.612 µM (active) with MOLT-4 and 4.03 µM (inactive) with OVCAR-8.

For `Cc1nc2c(n1Cc1ccc(F)cc1)C(=O)c1ccccc1C2=O`, the GI50 was 36.6 µM (inactive) with SNB-75; 5.61 µM (inactive) in the assay on K562; > 100 µM (inactive) with SNB-19; 42.2 µM (inactive) in the assay on KM12; 4.07 µM (inactive) in the assay with NCI-H460; 6.98 µM (inactive) in the assay with SF-539. Moreover, the GI50 in the assay on SK-OV-3 was > 100 µM (inactive); with SF-295, 44.2 µM (inactive); in the assay with UACC-257, 26.6 µM (inactive); in the assay with COLO 205, 18.9 µM (inactive); in the assay on SR, 4.29 µM (inactive); in the assay on MOLT-4 it was 5.4 µM (inactive). In addition, the GI50 in the assay with OVCAR-8 is 35.4 µM (inactive).

`CCCN(CCCC(NC(C)=O)C(=O)NCc1ccccc1)C(=O)NC` (centres undefined): the GI50 in the assay with SNB-75 is 13.7 µM (inactive); in the assay with K562, > 100 µM (inactive); with RPMI-8226, > 100 µM (inactive); with HOP-92 it was > 100 µM (inactive); in the assay on SNB-19, > 100 µM (inactive); with OVCAR-5, > 100 µM (inactive). Besides, the GI50 in the assay with KM12, with NCI-H460, with SF-539, in the assay on A498, with SK-OV-3 and in the assay with SF-295 was > 100 µM (inactive) each time. Moreover, the GI50 in the assay with UACC-257, with COLO 205, in the assay with MOLT-4 and with OVCAR-8 was > 100 µM (inactive) throughout.

In the case of `NC(=S)N/N=C(/CC(=O)c1ccccc1)C(=O)Nc1ccc(Cl)c(Cl)c1`, the GI50 was > 100 µM (inactive) with SNB-75; > 100 µM (inactive) with K562; 73.3 µM (inactive) in the assay with RPMI-8226; 40 µM (inactive) in the assay on HOP-92; 91.2 µM (inactive) in the assay on SNB-19; > 100 µM (inactive) in the assay on OVCAR-5. Besides, the GI50 with KM12 is 65.3 µM (inactive); in the assay on NCI-H460 it was 46.7 µM (inactive); in the assay on SF-539, > 100 µM (inactive); with A498 it was > 100 µM (inactive); in the assay with SK-OV-3, > 100 µM (inactive); with SF-295, 61.9 µM (inactive). The GI50 in the assay on UACC-257 is > 100 µM (inactive); with COLO 205 it was > 100 µM (inactive); in the assay with MOLT-4 it was 32.3 µM (inactive); with OVCAR-8, 47.6 µM (inactive).

On to `COc1ccc(NC(=O)C(C)Oc2ccc(OCC3CCCCC3)cc2)cc1` (centres undefined), for which the GI50 is 54 µM (inactive) in the assay with SNB-75; 57.9 µM (inactive) in the assay on K562; > 100 µM (inactive) in the assay on SNB-19; > 100 µM (inactive) in the assay on KM12; 45.8 µM (inactive) in the assay on NCI-H460; > 100 µM (inactive) in the assay with SF-539. The GI50 in the assay with A498 was > 100 µM (inactive); with SK-OV-3, > 100 µM (inactive); in the assay on UACC-257, 36.6 µM (inactive); with MOLT-4, 54.5 µM (inactive); with OVCAR-8, > 100 µM (inactive).

`CC1(C)CC(C)(C)CC(O)(C2(O)CC(C)(C)CC(C)(C)C2)C1`: the GI50 in the assay with K562, in the assay with RPMI-8226, with SNB-19, with KM12, with NCI-H460 and in the assay with SF-539 was > 100 µM (inactive) each time. Besides, the GI50 in the assay with SK-OV-3, in the assay with SF-295, in the assay with UACC-257, with COLO 205, in the assay with SR and in the assay with MOLT-4 was > 100 µM (inactive) throughout. In the assay on OVCAR-8, the GI50 is > 100 µM (inactive).

`CCCCCCCOc1ccc(/C=C\c2cc[n+](CCCCCCCC[n+]3ccc(/C=C\c4ccc(OCCCCCCC)cc4)cc3)cc2)cc1`: the GI50 in the assay on SNB-75 is > 100 µM (inactive); with RPMI-8226, 7.29 µM (inactive); in the assay on HOP-92 it was > 100 µM (inactive); in the assay on SNB-19, 7.87 µM (inactive); in the assay on OVCAR-5, 17.7 µM (inactive); in the assay with KM12 it was 15 µM (inactive). Besides, the GI50 with NCI-H460 was 5.51 µM (inactive); with SF-539 it was 65.5 µM (inactive); in the assay on A498 it was 26.6 µM (inactive); with SK-OV-3, 28.1 µM (inactive); with SF-295, 13.3 µM (inactive); with UACC-257, 86.1 µM (inactive). The results for the GI50 with COLO 205, in the assay with MOLT-4 and in the assay on OVCAR-8 were 10.7 µM (inactive), 15.2 µM (inactive) and 20.7 µM (inactive), respectively.

Consider `CC(=O)N(O)Cc1ccccc1`, for which the GI50 was 67.9 µM (inactive) in the assay with SNB-75; > 100 µM (inactive) in the assay on K562; > 100 µM (inactive) with RPMI-8226; > 100 µM (inactive) in the assay on HOP-92; > 100 µM (inactive) in the assay on SNB-19; > 100 µM (inactive) in the assay on OVCAR-5. Also, the GI50 in the assay with KM12, in the assay on NCI-H460, in the assay on SF-539, in the assay with SK-OV-3, in the assay with SF-295 and in the assay with UACC-257 was > 100 µM (inactive) in each case. In addition, the GI50 in the assay on COLO 205, with SR, with MOLT-4 and with OVCAR-8 was > 100 µM (inactive) throughout.

For `O=S(=O)(c1ccccc1)C(CN1CCCCC1)S(=O)(=O)c1ccccc1`, the GI50 with SNB-75, in the assay with K562, in the assay on RPMI-8226, with HOP-92, in the assay on SNB-19 and in the assay on OVCAR-5 was > 100 µM (inactive) in each case. Further, the GI50 with KM12, with NCI-H460, with SF-539, with SK-OV-3, in the assay on SF-295 and with UACC-257 was > 100 µM (inactive) in each case. The GI50 with COLO 205, in the assay with SR, in the assay on MOLT-4 and in the assay on OVCAR-8 was > 100 µM (inactive) each time.

With `CN(C)c1ccc(/C=C(\NC(=O)c2ccccc2)c2nc3ccc4c(c3[nH]2)C(=O)c2ccccc2C4=O)cc1`, the GI50 was 11 µM (inactive) in the assay with SNB-75; 26.9 µM (inactive) in the assay on K562; 3.18 µM (inactive) with RPMI-8226; 12.8 µM (inactive) in the assay with HOP-92; > 100 µM (inactive) in the assay with SNB-19; > 100 µM (inactive) in the assay on OVCAR-5. Further, the GI50 with KM12 was 5.19 µM (inactive); in the assay on NCI-H460 it was 29.1 µM (inactive); in the assay with SF-539, 36.5 µM (inactive); in the assay with A498, 6.61 µM (inactive); with SK-OV-3 it was 39 µM (inactive); in the assay with SF-295 it was 46.6 µM (inactive). Besides, the GI50 in the assay with UACC-257 was > 100 µM (inactive); in the assay on COLO 205 it was > 100 µM (inactive); with MOLT-4, 2.65 µM (inactive); in the assay on OVCAR-8, 37.4 µM (inactive).

With `Cn1c(-c2ccccc2)c/c(=N\NS(C)(=O)=O)c2cc(S(=O)(=O)O)ccc21`, the GI50 with SNB-75, in the assay on K562, in the assay on RPMI-8226, in the assay with HOP-92, in the assay on SNB-19 and in the assay on OVCAR-5 was > 100 µM (inactive) throughout. The GI50 in the assay on KM12, with NCI-H460, in the assay with SF-539, in the assay with SK-OV-3, in the assay on SF-295 and in the assay with UACC-257 was > 100 µM (inactive) throughout. Besides, the GI50 with COLO 205, in the assay with SR, in the assay on MOLT-4 and with OVCAR-8 was > 100 µM (inactive) in each case.

Take `C=CCNC(=O)N(CCCCC(NC(C)=O)C(=O)NCc1ccccc1)Cc1ccccc1` (centres undefined): the GI50 is > 100 µM (inactive) in the assay on SNB-75; > 100 µM (inactive) with K562; > 100 µM (inactive) in the assay with RPMI-8226; 65.8 µM (inactive) in the assay with HOP-92; > 100 µM (inactive) in the assay with SNB-19; > 100 µM (inactive) in the assay with OVCAR-5. For the same compound, the GI50 in the assay with KM12, in the assay on NCI-H460, in the assay with SF-539, with A498, in the assay on SK-OV-3 and in the assay with SF-295 was > 100 µM (inactive) throughout. In addition, the GI50 in the assay with UACC-257, with COLO 205, in the assay on MOLT-4 and in the assay with OVCAR-8 was > 100 µM (inactive) throughout.

For the compound `Cc1ccc(NC(=O)C(=O)C(C(=O)c2ccc3ccccc3c2)C2OC(=O)c3ccccc32)cc1C` (centres undefined), the GI50 in the assay on SNB-75 was 2.98 µM (inactive); in the assay with K562, 13.8 µM (inactive); in the assay on RPMI-8226 it was 4.7 µM (inactive); in the assay with HOP-92, 14 µM (inactive); with SNB-19 it was 5.31 µM (inactive); in the assay with OVCAR-5, 23.9 µM (inactive). The GI50 in the assay with KM12 was 19.5 µM (inactive); in the assay with NCI-H460, 5.74 µM (inactive); with SF-539 it was 3.02 µM (inactive); in the assay with A498 it was 10.4 µM (inactive); with SK-OV-3 it was 26.9 µM (inactive); with UACC-257, 10 µM (inactive). For the same compound, the GI50 is 16.6 µM (inactive) with COLO 205, 3.3 µM (inactive) in the assay on MOLT-4 and 12.8 µM (inactive) in the assay with OVCAR-8.
